Measurements from patent publication US20070254907A1, “COMPOSITIONS AND METHODS FOR CONTROLLING INFESTATION” (HATCHTECH PTY LTD, priority 2003, published 2007).
Entries after “also recorded” stand apart in the source; their conditions may differ.

Key:
lice eggs = test: whole plant or invertebrate; format: in vivo; settings: Lice (L)
Plutella xylostella eggs [1] = test: whole plant or invertebrate; format: in vivo; settings: for Ovicidal activity % / Activity class 0 = inactive 1 = low 2 = med 3 = high: Plutella (P); for % Inhibition: relative to controls
Method: The ovicidal efficacy of 2-acetyl-1-tetralone was also tested against Plutella eggs.

Plutella xylostella eggs [2] = test: Reversal of inhibition of Plutella egg hatching by added FeSO4; format: in vivo
Method: (§1) Within 24 hours of collection the following experimental design was chosen. Batches of eggs were exposed to 10 mM 6,6′-dimethyl-2,2′-dipyridyl for 2 seconds while additional batches of eggs were exposed to the solvent only (Methanol) for 2 seconds. All batches of eggs were allowed to air dry for 20 minutes at room temperature. The eggs were then given a 2 second exposure to FeSO4 at either 10, 5 or 1 mM, air dried and put in the incubator at 24° C. and allowed to hatch over the next 6 days. In addition, a positive control of 10 mM 6,6′-dimethyl-2,2′-dipyridyl was set up in which eggs were exposed to this compound for 2 seconds, air dried and placed in the incubator.
as §1, with “10 mM 5,5′-dimethyl-2,2′-dipyridyl for 2” for “10 mM 6,6′-dimethyl-2,2′-dipyridyl for 2”, “FeSO4 at 10, 5” for “FeSO4 at either 10, 5”, “put in an incubator at” for “put in the incubator at”, “of 10 mM, 5,5′-dimethyl-2,2′-dipyridyl was set” for “of 10 mM 6,6′-dimethyl-2,2′-dipyridyl was set”

B. ovis eggs = test: Egg hatching in Bovicola ovis; format: in vivo; settings: 10 mM; for Number hatched in different replicates: 10 eggs per replicate; for % Inhibition: in comparison to the controls; for Number unhatched: per replicate
Method: B. ovis eggs were collected from the wool of sheep that were infested with this parasite. The eggs were collected using forceps and with the aid of a dissecting microscope and placed in 24 well tissue culture plates in duplicate lots of 10 eggs per replicate. The eggs were then exposed to either methanol alone (control) or the test compounds for either 10 minutes or 1 minute before being removed from the wells and placed into individual glass vials containing a diet at the base of the tube. The tubes were placed in plastic containers containing a salt solution (to keep humidity constant at 68%) and the containers maintained at a temperature 32° C. The eggs were monitored for hatching over the following 12 days and % hatch inhibition determined in comparison to the controls.

[3] = system: Lice (L) and Plutella (P) eggs; settings: Lice (L) and Plutella (P)
[4] = system: Helicoverpa armigera eggs; test: Egg hatching of Helicoverpa armigera; settings: 10 mM
Method: A range of concentrations were made up in water and the eggs placed in the solutions for approximately 2-10 seconds. The eggs which had been laid on cloth were then blotted dry and placed in an incubator at 26° C. for 3-4 days until hatch. Hatch rates were then assessed compared to a water only treated control (FIG. 5).
The compound was dissolved in 100% diethoxyglycol and diluted to a final concentration of 1% in water.
Several hundred Helicoverpa armigera eggs (Tatura×Toowoomba strains) were collected, that had been laid on fine mesh cloth over a 24 hour period.
Batches of Helicoverpa eggs were exposed to a specific inhibitor solution for between 2-10 seconds the excess solution drained by blotting with dry tissue paper. The egg masses were then placed in a humid box at 25 degrees until egg hatch. Control eggs were exposed to absolute methanol as described above. At day 6 post laying the eggs were assessed from the different treatments and the percentage of egg hatch determined relative to the control as shown in Table 12.
Batches of Helicoverpa eggs were then exposed to a specific inhibitor solution for between 2-10 seconds the excess solution drained by blotting with dry tissue paper. The egg masses were then placed in a humid box at 25° C. until egg hatch. Control eggs were exposed to absolute methanol as described above. At day 6 post laying the eggs were assessed from the different treatments and the percentage of egg hatch determined relative to the control as shown in Table 13.

[5] = Table 10, eggs laid on cloth, 1 mM
[6] = Table 10, eggs laid on cloth, 10 mM
[7] = Table 11, eggs laid on parafilm, 1 mM
[8] = Table 11, eggs laid on parafilm, 10 mM
[9] = 10 mM chelator followed by 2 second exposure to 1 mM FeSO4
[10] = 10 mM chelator followed by 2 second exposure to 5 mM FeSO4
[11] = 10 mM chelator followed by 2 second exposure to 10 mM FeSO4
[12] = 10 mM chelator followed by 2 second exposure to MEOH
[13] = 10 mM chelator, 2 s, (+ve) control without second exposure

Cc1ccc(-c2ccc(C)cn2)nc1 [5,5′-dimethyl-2,2′-dipyridyl]
Ovicidal activity % (lice eggs; 30 mM): 100.00% | Activity class 0 = inactive 1 = low 2 = med 3 = high (lice eggs; listed as of 30 mM): 2 (a pLD50 value between 3 and 4 is considered moderately active (Class 2)) | effect on egg hatching of Plutella xylostella (words) (Plutella xylostella eggs [1]; 10 and 1 mM): significantly inhibit egg hatching | Ovicidal activity % (Plutella xylostella eggs [1]; 0.1 mM): 57.00% | Ovicidal activity % (Plutella xylostella eggs [1]; 1 mM): 98.00% | Activity class 0 = inactive 1 = low 2 = med 3 = high (Plutella xylostella eggs [1]; listed as of 0.1 mM): 3 (a pLD50 greater than 4 is considered strongly active (Class 3)) | Activity class 0 = inactive 1 = low 2 = med 3 = high (Plutella xylostella eggs [1]; listed as of 1 mM): 3 (a pLD50 greater than 4 is considered strongly active (Class 3)) | Number hatched (Plutella xylostella eggs [1]; [5]): 5 | Number unhatched (Plutella xylostella eggs [1]; [5]): 22 | % Inhibition (Plutella xylostella eggs [1]; [5]): 78% | Number hatched (Plutella xylostella eggs [1]; [6]): 0 | Number unhatched (Plutella xylostella eggs [1]; [6]): 21 | % Inhibition (Plutella xylostella eggs [1]; [6]): 100% | Number hatched (Plutella xylostella eggs [1]; [7]): 18 | Number unhatched (Plutella xylostella eggs [1]; [7]): 133 | % Inhibition (Plutella xylostella eggs [1]; [7]): 88% | Number hatched (Plutella xylostella eggs [1]; [8]): 0 | Number unhatched (Plutella xylostella eggs [1]; [8]): 138 | % Inhibition (Plutella xylostella eggs [1]; [8]): 100% | Number hatched (Plutella xylostella eggs [2]; [9]): 39 | Number unhatched (Plutella xylostella eggs [2]; [9]): 0 | % Inhibition (Plutella xylostella eggs [2]; 10 mM chelator followed by 2 second exposure to 1 mM FeSO4, relative to FeSO4 controls): 0% | Number hatched (Plutella xylostella eggs [2]; [10]): 25 | Number unhatched (Plutella xylostella eggs [2]; [10]): 0 | % Inhibition (Plutella xylostella eggs [2]; 10 mM chelator followed by 2 second exposure to 5 mM FeSO4, relative to FeSO4 controls): 0% | Number hatched (Plutella xylostella eggs [2]; [11]): 23 | Number unhatched (Plutella xylostella eggs [2]; [11]): 2 | % Inhibition (Plutella xylostella eggs [2]; 10 mM chelator followed by 2 second exposure to 10 mM FeSO4, relative to FeSO4 controls): 8% | % Inhibition (Plutella xylostella eggs [2]; [12]): 55% | Number hatched (Plutella xylostella eggs [2]; [12]): 16 | Number unhatched (Plutella xylostella eggs [2]; [12]): 19 | % Inhibition (Plutella xylostella eggs [2]; [13]): 100% | Number hatched (Plutella xylostella eggs [2]; [13]): 0 | Number unhatched (Plutella xylostella eggs [2]; [13]): 38 | effect of added Fe in FeSO4 on the chelator's inhibition of egg hatching (Plutella xylostella eggs [2]; 10 mM chelator, then FeSO4 10, 5 or 1 mM): able to reverse the effects | inhibition of egg hatching after MeOH alone post exposure (Plutella xylostella eggs [2]; 10 mM chelator, then MeOH): significant degree of inhibition of egg hatching | egg hatching in the louse (B. ovis eggs; 10 or 1 minute exposure): completely inhibited | Number hatched in different replicates (B. ovis eggs; 1 minute exposure): Rep 1. 0; also recorded: Rep 2. 0 | % Inhibition (B. ovis eggs; 1 minute exposure): 100% | Number unhatched (B. ovis eggs; 1 minute exposure): 10 | Number hatched in different replicates (B. ovis eggs; 10 minute exposure): Rep 2. 0; also recorded: Rep 1. 0 | % Inhibition (B. ovis eggs; 10 minute exposure): 100% | Number unhatched (B. ovis eggs; 10 minute exposure): 10 | Ovicidal activity % ([3]; 10 mM): 100.00% | Activity class 0 = inactive 1 = low 2 = med 3 = high ([3]; listed as of 10 mM): 3 (a pLD50 greater than 4 is considered strongly active (Class 3)) | effect on egg hatching of Helicoverpa armigera (words) [4]: significant inhibition of egg hatching | Number hatched ([4]; Table 13): 0 | Number unhatched ([4]; Table 13): 42 | % Inhibition ([4]; Table 13, relative to the control (100% MeOH)): 100%
